From patent publication US9221795B2, “Phosphatidylinositol 3-kinase inhibitors” (Gilead Sciences, Inc., priority 2013, dated 2015)
pEC50, pIC50: −log10 of the molar value.

Tests used:
[1] = target: PI3Kδ (Homo sapiens (Human), UniProt O00329); experiment: Enzymatic activity of PI3K isoforms, TR-FRET assay (PI3Kδ); type: biochemical; settings: 2× Km ATP, geometric mean if more than one value
Summary of the method: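 Recombinant heterodimeric PI3Kβ or PI3Kδ (25-50 pM) was run with 2 μM PIP2 and 2× Km ATP (75-500 μM) at pH 7.4, for 30 min at 25° C. PIP3 formation was detected by TR-FRET displacement of labeled PIP3 from Eu-GRP-1. IC50 values in nM come from four-parameter fits, as geometric means.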

[2] = target: PI3Kβ (Homo sapiens (Human), UniProt P42338); experiment: Enzymatic activity of PI3K isoforms, TR-FRET assay (PI3Kβ); type: biochemical; settings: 2× Km ATP, geometric mean if more than one value
PI3Kβ, sequence (P42338 whole entry, the tested form may be a part, canonical isoform): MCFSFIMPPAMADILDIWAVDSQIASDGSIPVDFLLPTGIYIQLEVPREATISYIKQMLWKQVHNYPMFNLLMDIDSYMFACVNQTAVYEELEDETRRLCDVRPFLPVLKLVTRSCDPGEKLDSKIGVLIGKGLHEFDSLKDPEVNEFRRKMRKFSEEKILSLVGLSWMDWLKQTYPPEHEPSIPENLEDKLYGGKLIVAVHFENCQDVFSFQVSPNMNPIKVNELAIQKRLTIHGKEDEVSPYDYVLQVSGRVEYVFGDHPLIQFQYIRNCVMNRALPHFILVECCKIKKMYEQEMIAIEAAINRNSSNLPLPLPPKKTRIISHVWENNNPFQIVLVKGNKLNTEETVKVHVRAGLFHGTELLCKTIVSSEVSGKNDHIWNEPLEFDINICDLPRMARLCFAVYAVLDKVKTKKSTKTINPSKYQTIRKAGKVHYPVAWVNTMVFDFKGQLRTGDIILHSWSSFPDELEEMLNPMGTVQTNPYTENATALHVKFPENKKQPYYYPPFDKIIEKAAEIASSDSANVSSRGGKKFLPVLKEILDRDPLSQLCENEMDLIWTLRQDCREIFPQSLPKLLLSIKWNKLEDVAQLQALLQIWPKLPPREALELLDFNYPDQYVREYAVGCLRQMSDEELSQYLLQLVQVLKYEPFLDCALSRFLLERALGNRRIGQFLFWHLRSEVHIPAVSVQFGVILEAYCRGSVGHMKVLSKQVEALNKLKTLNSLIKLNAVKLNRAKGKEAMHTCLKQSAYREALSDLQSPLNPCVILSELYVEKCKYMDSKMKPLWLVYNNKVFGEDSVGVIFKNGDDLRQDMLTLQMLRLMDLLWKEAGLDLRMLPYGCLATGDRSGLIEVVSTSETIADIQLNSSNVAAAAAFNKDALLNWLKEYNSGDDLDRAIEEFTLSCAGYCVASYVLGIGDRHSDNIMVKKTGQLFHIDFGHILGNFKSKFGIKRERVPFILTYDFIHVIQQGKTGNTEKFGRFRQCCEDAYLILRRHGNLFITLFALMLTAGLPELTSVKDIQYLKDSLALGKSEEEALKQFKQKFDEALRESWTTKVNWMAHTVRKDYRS
PI3Kβ, sequence (P27986 whole entry partner, the tested form may be a part, canonical isoform): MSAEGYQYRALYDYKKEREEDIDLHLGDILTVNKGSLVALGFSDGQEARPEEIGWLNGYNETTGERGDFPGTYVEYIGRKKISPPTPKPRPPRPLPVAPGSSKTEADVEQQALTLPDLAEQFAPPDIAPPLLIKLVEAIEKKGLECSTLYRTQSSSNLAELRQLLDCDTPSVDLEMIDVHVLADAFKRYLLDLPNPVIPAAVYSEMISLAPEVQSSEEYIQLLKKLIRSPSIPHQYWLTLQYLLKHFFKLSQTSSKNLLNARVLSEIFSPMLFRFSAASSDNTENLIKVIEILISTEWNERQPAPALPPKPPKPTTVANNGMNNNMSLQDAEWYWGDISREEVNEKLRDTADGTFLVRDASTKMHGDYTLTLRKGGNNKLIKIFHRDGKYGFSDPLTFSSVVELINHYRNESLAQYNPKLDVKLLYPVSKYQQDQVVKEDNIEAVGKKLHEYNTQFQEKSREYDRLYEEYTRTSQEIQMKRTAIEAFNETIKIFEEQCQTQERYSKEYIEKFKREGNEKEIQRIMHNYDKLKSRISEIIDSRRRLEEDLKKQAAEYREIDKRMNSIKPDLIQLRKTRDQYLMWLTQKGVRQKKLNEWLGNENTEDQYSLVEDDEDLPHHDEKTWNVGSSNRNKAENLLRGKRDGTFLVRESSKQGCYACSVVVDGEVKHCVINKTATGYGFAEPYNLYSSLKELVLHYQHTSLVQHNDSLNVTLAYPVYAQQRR
Protocol: Enzymatic activity of the class I PI3K isoforms in the presence of the compounds of Table 1 and Compounds X, Y and Z was measured using a time-resolved fluorescence resonance energy transfer (TR-FRET) assay. The TR-FRET assay was used to monitor formation of the product 3,4,5-inositol triphosphate molecule (PIP3) as it competed with fluorescently labeled PIP3 for binding to the GRP-1 pleckstrin homology domain protein. An increase in […] product results in a decrease in TR-FRET signal as the labeled fluorophore is displaced from the GRP-1 protein binding site.
Class I PI3K isoforms were expressed and purified as heterodimeric recombinant proteins. All assay reagents and buffers for the TR-FRET assay were purchased from Millipore. PI3K isoforms were assayed under initial rate conditions in the presence of 25 mM Hepes (pH 7.4), and 2× Km ATP (75-500 μM), 2 μM PIP2, 5% glycerol, 5 mM MgCl2, 50 mM NaCl, 0.05% (v/v) Chaps, 1 mM dithiothreitol, 1% (v/v) DMSO at the following concentrations for each isoforms: PI3Kα, PI3Kβ, and PI3Kδ between 25 and 50 pM, and PI3Kγ at 2 nM. After an assay reaction time of 30 minutes at 25° C., reactions were terminated with a final concentration of 10 mM EDTA, 10 nM labeled-PIP3, and 35 nM Europium labeled GRP-1 detector protein before reading TR-FRET on an Envision plate reader (Ex: 340 nm; Em: 615/665 nm; […] delay and 500 μs read window).
Data were normalized based on positive ([…] wortmanin) and negative (DMSO) controls. α, β, δ, and γ IC50 values were calculated from the fit of the dose-response curves to a four-parameter equation. All IC50 values represent geometric mean values if more than one value was obtained. IC50 values were reported in units of nM.

[3] = system: basophils; experiment: Basophil activation in human whole blood (Flow2 CAST kit, CD63 flow cytometry); type: cell-based; settings: human whole blood, basophils activated with anti-FcεRI mAb or fMLP, percent CD63 positive cells
[4] = Hepatocyte stability (parent drug disappearance in cryopreserved hepatocytes); type: in vitro ADME, human; settings: human, cryopreserved human hepatocytes, human hepatocytes, 2 μM substrate, 37° C.
Protocol: This assay was used to evaluate the metabolic stability of test articles (TA) following incubation in cryopreserved hepatocytes by monitoring parent drug disappearance via LC/MC. The TA was incubated with 1 million hepatocytes/mL at 2 μM substrate in duplicate. The incubation was carried out at 37° C. with 5% CO2 and saturating humidity. Samples were taken at 0, 1, 2, and 4 hours to monitor the disappearance of TA and a half-life (t1/2) was determined. Table 3 below summarizes the human hepatocyte t1/2 values (hours) collected in the Example.

PI3Kδ, sequence (O00329 whole entry, canonical isoform): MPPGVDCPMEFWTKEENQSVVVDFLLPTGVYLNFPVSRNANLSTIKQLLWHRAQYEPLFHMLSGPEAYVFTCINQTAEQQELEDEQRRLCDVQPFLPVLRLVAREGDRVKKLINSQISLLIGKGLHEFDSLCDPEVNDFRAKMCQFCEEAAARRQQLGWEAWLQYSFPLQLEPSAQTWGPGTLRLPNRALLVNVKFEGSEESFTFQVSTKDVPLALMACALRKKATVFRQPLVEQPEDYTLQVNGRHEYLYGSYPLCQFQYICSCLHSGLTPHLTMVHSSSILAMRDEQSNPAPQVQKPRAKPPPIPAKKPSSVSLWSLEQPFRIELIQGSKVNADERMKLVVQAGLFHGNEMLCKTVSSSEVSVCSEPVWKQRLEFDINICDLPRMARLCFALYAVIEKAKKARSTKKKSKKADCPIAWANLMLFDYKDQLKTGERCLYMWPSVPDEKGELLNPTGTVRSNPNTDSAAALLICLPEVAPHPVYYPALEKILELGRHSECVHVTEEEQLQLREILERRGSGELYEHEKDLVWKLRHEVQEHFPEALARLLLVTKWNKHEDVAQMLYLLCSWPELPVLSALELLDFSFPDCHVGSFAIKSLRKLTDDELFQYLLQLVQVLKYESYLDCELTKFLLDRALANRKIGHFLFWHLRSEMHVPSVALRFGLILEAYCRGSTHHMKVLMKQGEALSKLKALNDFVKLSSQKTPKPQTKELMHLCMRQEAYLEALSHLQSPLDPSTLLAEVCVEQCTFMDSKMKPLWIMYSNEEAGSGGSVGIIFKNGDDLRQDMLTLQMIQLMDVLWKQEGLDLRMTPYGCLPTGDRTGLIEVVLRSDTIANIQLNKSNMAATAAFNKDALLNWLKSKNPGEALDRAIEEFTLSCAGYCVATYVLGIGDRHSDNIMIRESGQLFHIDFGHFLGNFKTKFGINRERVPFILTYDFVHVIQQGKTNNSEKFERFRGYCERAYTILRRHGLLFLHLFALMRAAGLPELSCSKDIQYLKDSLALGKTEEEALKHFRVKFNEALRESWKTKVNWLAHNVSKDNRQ
PI3Kδ, sequence (P27986 whole entry partner, canonical isoform): as the sequence (P27986 whole entry partner, the tested form may be a part, canonical isoform) above

SMILES | pIC50 [1] | pIC50 [2] | pEC50 ([3]; class symbol) | pEC50 ([3]; geometric mean) | half-life at 2 μM ([4]; class symbol) | half-life at 2 μM ([4]; Table 3) | pEC50 ([3]; Homo sapiens, class symbol) | pEC50 ([3]; Homo sapiens, geometric mean)
CC[C@H](Nc1nc(N)nc(N)c1Cl)c1nc2cccc(Cl)c2c(=O)n1-c1ccc(N)nc1 [Compound 86, (S)-3-(6-aminopyridin-3-yl)-5-chloro-2-(1-((2,6-diamino-5-chloropyrimidin-4-yl)amino)propyl)quinazolin-4(3H)-one] | 8.05 | 7.46 |  |  |  |  |  | 
C[C@H](Nc1nc(N)nc(N)c1Cl)c1nc2c(Cl)ccc(Cl)c2c(=O)n1-c1ccc(N)nc1 [Compound 83, (S)-3-(6-aminopyridin-3-yl)-5,8-dichloro-2-(1-((2,6-diamino-5-chloropyrimidin-4-yl)amino)ethyl)quinazolin-4(3H)-one] | 7.92 | 7.38 |  |  |  |  |  | 
Cc1cc(N)ncc1-n1c([C@@H](Nc2nc(N)nc(N)c2C#N)C2CC2)nc2c(Cl)ccc(Cl)c2c1=O (atropisomer, axis not shown) [Compound 98, (S)-2,4-diamino-6-(((3-(6-amino-4-methylpyridin-3-yl)-5,8-dichloro-4-oxo-3,4-dihydroquinazolin-2-yl)(cyclopropyl)methyl)amino)pyrimidine-5-carbonitrile] | 7.68 | 6.80 |  |  |  |  |  | 
C[C@H](Nc1nc(N)nc(N)c1Cl)c1nc2c(Cl)cc(F)cc2c(=O)n1-c1ccc(N)nc1 [Compound 81, (S)-3-(6-aminopyridin-3-yl)-8-chloro-2-(1-((2,6-diamino-5-chloropyrimidin-4-yl)amino)ethyl)-6-fluoroquinazolin-4(3H)-one] | 7.08 | 6.74 |  |  |  |  |  | 
CCC[C@H](Nc1nc(N)nc(N)c1Cl)c1nc2cccc(Cl)c2c(=O)n1-c1ccc(N)nc1 [Compound 102, (S)-3-(6-aminopyridin-3-yl)-5-chloro-2-(1-((2,6-diamino-5-chloropyrimidin-4-yl)amino)butyl)quinazolin-4(3H)-one] | 7.82 | 7.21 |  |  |  |  |  | 
CC[C@H](Nc1nc(N)nc(N)c1C#N)c1nc2cccc(Cl)c2c(=O)n1-c1cnc(N)cc1C (atropisomer, axis not shown) [Compound 91, (S)-2,4-diamino-6-((1-(3-(6-amino-4-methylpyridin-3-yl)-5-chloro-4-oxo-3,4-dihydroquinazolin-2-yl)propyl)amino)pyrimidine-5-carbonitrile] | 8.40 | 7.00 |  |  |  |  |  | 
Cc1ncccc1-n1c([C@H](C)Nc2nc(N)nc(N)c2C#N)nc2cccc(Cl)c2c1=O (atropisomer, axis not shown) [Compound 39, (S)-2,4-diamino-6-(1-(5-chloro-3-(2-methylpyridin-3-yl)-4-oxo-3,4-dihydroquinazolin-2-yl)ethylamino)pyrimidine-5-carbonitrile] | 9.00 |  | 8.00 to 9.00 | 8.70 | 3 to 6 h | 3 h |  | 
N#Cc1c(N)nc(N)nc1N[C@H](c1nc2cccc(Cl)c2c(=O)n1-c1cncc(F)c1)C1CC1 [Compound 21, (S)-2,4-diamino-6-((5-chloro-3-(5-fluoropyridin-3-yl)-4-oxo-3,4-dihydroquinazolin-2-yl)(cyclopropyl)methylamino)pyrimidine-5-carbonitrile] | 8.70 |  |  |  | > 10 h | > 10 h | 8.00 to 9.00 | 8.40
Cc1ccncc1-n1c([C@H](C)Nc2nc(N)nc(N)c2C#N)nc2cccc(Cl)c2c1=O (atropisomer, axis not shown) [Compound 41, (S)-2,4-diamino-6-(1-(5-chloro-3-(4-methylpyridin-3-yl)-4-oxo-3,4-dihydroquinazolin-2-yl)ethylamino)pyrimidine-5-carbonitrile] | 9.40 |  | 8.00 to 9.00 | 8.40 | > 10 h | > 10 h |  | 
C[C@H](Nc1nc(N)nc(N)c1C#N)c1nc2c(Cl)ccc(Cl)c2c(=O)n1-c1cccnc1 [Compound 23, (S)-2,4-diamino-6-(1-(5,8-dichloro-4-oxo-3-(pyridin-3-yl)-3,4-dihydroquinazolin-2-yl)ethylamino)pyrimidine-5-carbonitrile] | 9.15 |  |  |  | > 10 h | > 10 h | > 9.00 | 9.10
C[C@H](Nc1nc(N)nc(N)c1C#N)c1nc2c(Cl)ccc(Cl)c2c(=O)n1-c1cncc(F)c1 [Compound 30, (S)-2,4-diamino-6-(1-(5,8-dichloro-3-(5-fluoropyridin-3-yl)-4-oxo-3,4-dihydroquinazolin-2-yl)ethylamino)pyrimidine-5-carbonitrile] | 9.00 |  |  |  | 6 to 10 h | 9 h | > 9.00 | 9.15

More lines, in order of rising pIC50 [1], values ahead:

pIC50 [1] | pIC50 [2] | pEC50 ([3]; class symbol) | pEC50 ([3]; geometric mean) | half-life at 2 μM ([4]; class symbol) | half-life at 2 μM ([4]; Table 3) | pEC50 ([3]; Homo sapiens, class symbol) | pEC50 ([3]; Homo sapiens, geometric mean) | SMILES
7.03 | 6.28 |  |  |  |  |  |  | CCC[C@H](Nc1nc(N)nc(N)c1Cl)c1nc2ccc(F)c(Cl)c2c(=O)n1-c1ccc(N)nc1 [Compound 104, (S)-3-(6-aminopyridin-3-yl)-5-chloro-2-(1-((2,6-diamino-5-chloropyrimidin-4-yl)amino)butyl)-6-fluoroquinazolin-4(3H)-one]
7.32 | 7.00 |  |  |  |  |  |  | C[C@H](Nc1nc(N)nc(N)c1Cl)c1nc2ccc(F)c(Cl)c2c(=O)n1-c1ccc(N)nc1 [Compound 100, (S)-3-(6-aminopyridin-3-yl)-5-chloro-2-(1-((2,6-diamino-5-chloropyrimidin-4-yl)amino)ethyl)-6-fluoroquinazolin-4(3H)-one]
8.05 | 7.57 |  |  |  |  |  |  | Nc1ccc(-n2c([C@@H](Nc3nc(N)nc(N)c3Cl)C3CC3)nc3cccc(Cl)c3c2=O)cn1 [Compound 89, (S)-3-(6-aminopyridin-3-yl)-5-chloro-2-(cyclopropyl((2,6-diamino-5-chloropyrimidin-4-yl)amino)methyl)quinazolin-4(3H)-one]
8.52 |  |  |  | > 10 h | > 10 h | 8.00 to 9.00 | 8.52 | CC[C@H](Nc1nc(N)nc(N)c1C#N)c1nc2cccc(Cl)c2c(=O)n1-c1cncc(F)c1 [Compound 20, (S)-2,4-diamino-6-(1-(5-chloro-3-(5-fluoropyridin-3-yl)-4-oxo-3,4-dihydroquinazolin-2-yl)propylamino)pyrimidine-5-carbonitrile]
8.70 |  |  |  | > 10 h | > 10 h | 8.00 to 9.00 | 8.70 | CC[C@H](Nc1nc(N)nc(N)c1C#N)c1nc2cccc(Cl)c2c(=O)n1-c1cccnc1 [Compound 2, (S)-2,4-diamino-6-(1-(5-chloro-4-oxo-3-(pyridin-3-yl)-3,4-dihydroquinazolin-2-yl)propylamino)pyrimidine-5-carbonitrile]
9.22 | 8.70 |  |  |  |  |  |  | N#Cc1c(N)nc(N)nc1N[C@H](c1nc2cccc(Cl)c2c(=O)n1-c1ccc(N)nc1)C1CC1 [Compound 90, (S)-2,4-diamino-6-(((3-(6-aminopyridin-3-yl)-5-chloro-4-oxo-3,4-dihydroquinazolin-2-yl)(cyclopropyl)methyl)amino)pyrimidine-5-carbonitrile]
9.22 | 7.48 |  |  |  |  |  |  | C[C@H](Nc1nc(N)nc(N)c1C#N)c1nc2cccc(Cl)c2c(=O)n1-c1cncc(N)c1 [Compound 108, (S)-2,4-diamino-6-((1-(3-(5-aminopyridin-3-yl)-5-chloro-4-oxo-3,4-dihydroquinazolin-2-yl)ethyl)amino)pyrimidine-5-carbonitrile]
9.40 |  |  |  | > 10 h | > 10 h | > 9.00 | 9.52 | C[C@H](Nc1nc(N)nc(N)c1C#N)c1nc2c(F)ccc(Cl)c2c(=O)n1-c1cccnc1 [Compound 24, (S)-2,4-diamino-6-(1-(5-chloro-8-fluoro-4-oxo-3-(pyridin-3-yl)-3,4-dihydroquinazolin-2-yl)ethylamino)pyrimidine-5-carbonitrile]
